The values that follow come from patent US20090286750A1, “USE OF RIBOSE IN LESSENING THE CLINICAL SYMPTOMS OF ABERRANT FIRING OF NEURONS” (priority 2008, published 2009).

The nature of series [1]: Serum D-Ribose levels and half life after infusion or oral administration. It counts as in vivo, human. How it is done:
D-Ribose is found at low levels in the diet and normal serum levels are approximately 2 mg/dl. […] When infused for short periods at the concentrations of 60 mg/kg and 100 mg/kg, D-Ribose levels in the serum rose, in each case, to approximately 25 mg/dl. These doses of D-Ribose, for a 60 kilogram man, are 3.6 and 5 grams, respectively. Doses for larger or smaller size humans can be calculated based on their mass, and are typically 1 to 10 grams. […] Intravenous administration of high doses of D-Ribose can elevate the serum levels to as high as 60 mg/dl, while a further increase in dose to 222.2 mg/kg can produce a serum level as high as 86 mg/dl. See, for example, Gross et al., Klinische Wochenschrift (1991) 69:31-36.
Serum D-ribose levels should be maintained long enough to establish an effect that will persist after the serum D-ribose level is back to baseline levels. […] Typically, approximately a third of the cardiac output is used to supply energy to the brain.

The subject of series [2] is two familial males with RLS. The experiment in a line: Restless Legs Syndrome case study, oral D-ribose at three dosing regimens. It counts as in vivo, human. An excerpt:
We present a report on two familial males with RLS in which the supplementation of D-ribose produced a benefit in lessening the occurrence and severity of their daily symptoms. Both affected male individuals were from a positive family prevalence, three generations carrying the diagnosis of RLS. These males involved the latter two generations, parent and child, respectively. Both men had no underlying medical conditions. Their symptoms of RLS date back for decades and presently have progressed to the moderate to severe discomfort stage, mainly experienced during sedentary periods throughout the day with exacerbation of symptoms during nocturnal sleep. Both individuals were introduced to D-ribose. To evaluate any potential benefits of D-ribose in RLS, each individual orally consumed D-ribose (five grams per dose) daily at different trial dosing regimens. Each trial dosing regimen lasted for three weeks with a two week interval washout between dosing regimens. The initial regimen involved a single dose of oral D-ribose consumed only at breakfast. The second dosing regimen involved consumption of oral D-ribose at breakfast and lunch. In the last dosing regiment, oral D-ribose was taken with all meals, breakfast, lunch and dinner. A diary pertaining to the documentation and severity of RLS symptoms was compiled. The two week washout period between stages was designed to observe any return or worsening of their symptoms. […] Following completion of all dosing regimens of oral D-ribose and with the final wash out period, both males elected to re-start oral dosing of D-ribose at 5 grams/doses three times a day.

The conditions of series [3]: cited from earlier work.
The conditions of series [4]: regardless of the measured serum level of D-Ribose; cited from earlier work.
Series [5] relates to two familial males with RLS. The conditions noted are these: oral dosage below eight grams at a time, no more often than every two hours; cited from earlier work.
[6] abbreviates: oral 5 g at breakfast and lunch, three weeks.
[7] abbreviates: oral 5 g at breakfast, lunch and dinner, three weeks.
The mark [8] stands for this setting: oral 5 g, single dose at breakfast, three weeks.

The structures appear in SMILES notation. Like-named read-outs stand apart in the source and are kept apart here.

Consider `O=C[C@H](O)[C@H](O)[C@H](O)CO` [D-Ribose], for which the “time for serum D-Ribose levels to drop to near baseline of two mg/dl” value in series [1] (at a 15 minute half life) was “within an hour”. Besides, the half-life in series [1] (human, serum, assumed from the above oral pharmacokinetic information) is 15 min. Also, in series [2] (RLS study), the “washout complete after ceasing D-ribose supplementation” value turned out to be 48 h. Besides, in series [2] (setting [6]), the “leg twitching events and urge to move during the day” value was “reduced for one of the subjects and rarely present in the other”. The nocturnal symptoms result in series [2] (setting [6]) was “still experienced the unpleasant sensations during the night”; in series [2] (setting [7]), “of a much lesser degree and had a later occurrence”. In series [2] (setting [7]), the diurnal symptoms result is recorded as “total elimination”. Besides, the “general feeling (energy, fatigue)” value in series [2] (setting [8]) is “more energy and less fatigue”. Further, the “symptoms of RLS” value in series [2] (setting [8]) is recorded as “without any significant changes”. In addition, in series [2] (oral 5 grams/dose three times a day), the adverse reactions result is “without any adverse reactions”. In addition, in series [2] (re-started oral 5 grams/dose three times a day), the “severity and onset of symptoms affecting quality of life” value is “substantially improved”. The “time to return of clinical RLS symptoms after cessation of oral D-ribose” value in series [2] (washout period) is at most 48 h. In addition, in series [3] (baseline, from diet), the “normal serum levels of D-Ribose” value is “approximately 2 mg/dl”. For the same compound, the “D-Ribose level in the serum” value in series [3] (infused for short periods at 60 mg/kg) and in series [3] (infused for short periods at 100 mg/kg) was “approximately 25 mg/dl” throughout. Moreover, the “half life of D-Ribose in the serum” value was 11 min in series [3] (infusion 60 mg/kg) and 16 min in series [3] (infusion 100 mg/kg). Moreover, the “serum D-Ribose level” value in series [3] (intravenous administration of high doses) was at most 60 mg/dL; in series [3] (intravenous, further increase in dose to 222.2 mg/kg), at most 86 mg/dL; in series [3] (oral, four hours of 83.2 mg/kg per hour), 29.25 mg/dL; in series [3] (oral, four hours of 166.7 mg/kg per hour) it was 35 mg/dL. For the same compound, the “decline in serum glucose, ultimate lower level” value in series [4] is given as 25%. The side effects result in series [5] is “no side effects”.
